Test results reported in PubChem BioAssay AID256 (DTP/NCI, 2004).
Where “and” joins values, the source holds several entries; their conditions need not be identical. Identical values can stand only once. Toxic doses and inconclusive results are not listed. Rule for the calls: active = survival T/C of 150% or more; inactive = T/C below 125% in these data.

System: CD2F1 mice, L1210 leukemia ip, survival T/C
Assay: NCI In Vivo Anticancer Drug Screen. Data for tumor model L1210 Leukemia (intraperitoneal) in CD2F1 (CDF1) mice
Details: higher = longer survival
How it was run: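 Implant tumor; dose compound or vehicle; measure endpoint in both groups; report treated divided by control.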

[1] = endpoint: mean survival time, dose: 50.0 mg/kg/injection, schedule: Q01DX009 (ip), vehicle: saline with Tween-80
[2] = endpoint: mean survival time, dose: 100.0 mg/kg/injection, schedule: Q01DX009 (ip), vehicle: saline with Tween-80
[3] = endpoint: mean survival time, dose: 100.0 mg/kg/injection, schedule: Q04DX003 (ip), vehicle: saline with Tween-80
[4] = endpoint: mean survival time, dose: 200.0 mg/kg/injection, schedule: Q01DX009 (ip), vehicle: saline with Tween-80
[5] = endpoint: mean survival time, dose: 200.0 mg/kg/injection, schedule: Q04DX003 (ip), vehicle: saline with Tween-80
[6] = endpoint: mean survival time, dose: 400.0 mg/kg/injection, schedule: Q01DX009 (ip), vehicle: saline with Tween-80
[7] = endpoint: mean survival time, dose: 25.0 mg/kg/injection, schedule: Q04DX003 (ip), vehicle: saline with Tween-80
[8] = endpoint: mean survival time, dose: 50.0 mg/kg/injection, schedule: Q04DX003 (ip), vehicle: saline with Tween-80
[9] = endpoint: mean survival time, dose: 400.0 mg/kg/injection, schedule: Q04DX003 (ip), vehicle: saline with Tween-80
[10] = endpoint: mean survival time, dose: 100.0 mg/kg/injection, schedule: Q04DX003 (ip), vehicle: saline
[11] = endpoint: mean survival time, dose: 200.0 mg/kg/injection, schedule: Q04DX003 (ip), vehicle: saline
[12] = endpoint: mean survival time, dose: 400.0 mg/kg/injection, schedule: Q04DX003 (ip), vehicle: saline
[13] = endpoint: mean survival time, dose: 12.5 mg/kg/injection, schedule: Q01DX009 (ip), vehicle: saline with Tween-80
[14] = endpoint: mean survival time, dose: 25.0 mg/kg/injection, schedule: Q01DX009 (ip), vehicle: saline with Tween-80

Measured: T/C

O=C(O)c1cc(C(=O)O)c(C(=O)O)cc1C(=O)O.[NH-]C1CCCC1.[NH-]C1CCCC1.[NH-]C1CCCC1.[NH-]C1CCCC1.[Pt+2].[Pt+2]
inactive: endpoint: mean survival time, dose: 3.12 mg/kg/injection, schedule: Q04DX003 (ip), vehicle: distilled water + Tween-80 103 % of control | endpoint: mean survival time, dose: 6.25 mg/kg/injection, schedule: Q04DX003 (ip), vehicle: distilled water + Tween-80 107 % of control | endpoint: mean survival time, dose: 12.5 mg/kg/injection, schedule: Q04DX003 (ip), vehicle: distilled water + Tween-80 108 % of control | endpoint: mean survival time, dose: 25.0 mg/kg/injection, schedule: Q04DX003 (ip), vehicle: distilled water + Tween-80 111 % of control | endpoint: mean survival time, dose: 50.0 mg/kg/injection, schedule: Q04DX003 (ip), vehicle: distilled water + Tween-80 108 % of control | endpoint: mean survival time, dose: 100.0 mg/kg/injection, schedule: Q04DX003 (ip), vehicle: distilled water + Tween-80 113 % of control | endpoint: mean survival time, dose: 200.0 mg/kg/injection, schedule: Q04DX003 (ip), vehicle: distilled water + Tween-80 124 % of control

O=C(O)c1ccccc1SSc1ccccc1C(=O)O
inactive: [1] 89 % of control | [2] 101 % of control | [3] 102 % of control | [4] 95 % of control | [5] 104 % of control

O=[N+]([O-])c1ccc(/C=C/c2ccc([N+](=O)[O-])cc2S(=O)(=O)O)c(S(=O)(=O)O)c1
inactive: [2] 102 % of control | [4] 105 % of control | [6] 94 % of control

CC(C)C(=O)C(C)(C)C(=O)N1CCCC1
inactive: endpoint: mean survival time, dose: 100.0 mg/kg/injection, schedule: Q01DX009 (ip), vehicle: saline 92 % of control | endpoint: mean survival time, dose: 200.0 mg/kg/injection, schedule: Q01DX009 (ip), vehicle: saline 103 % of control | endpoint: mean survival time, dose: 400.0 mg/kg/injection, schedule: Q01DX009 (ip), vehicle: saline 91 % of control

[Cl][Pt][Cl].[NH-]NC(=O)c1ccncc1
inactive: endpoint: mean survival time, dose: 12.5 mg/kg/injection, schedule: Q04DX003 (ip), vehicle: saline with Tween-80 95 % of control | [7] 94 % of control | [8] 91 % of control | [3] 94 % of control | [5] 88 % of control

COc1ccc(NC(=S)N(C)C)cc1
inactive: [3] 94 % of control | [5] 90 % of control | [9] 92 % of control

Nc1ncn(C2OC(COC(=O)c3ccccc3)C(OC(=O)c3ccccc3)C2OC(=O)c2ccccc2)n1 (stereo unspecified)
inactive: endpoint: median survival time, dose: 8.75 mg/kg/injection, schedule: Q01DX005 (ip), vehicle: distilled water + Tween-80 94 % of control | endpoint: median survival time, dose: 17.5 mg/kg/injection, schedule: Q01DX005 (ip), vehicle: distilled water + Tween-80 91 % of control | endpoint: median survival time, dose: 35.0 mg/kg/injection, schedule: Q01DX005 (ip), vehicle: distilled water + Tween-80 91 % of control | endpoint: median survival time, dose: 70.0 mg/kg/injection, schedule: Q01DX005 (ip), vehicle: distilled water + Tween-80 95 % of control | endpoint: median survival time, dose: 140.0 mg/kg/injection, schedule: Q01DX005 (ip), vehicle: distilled water + Tween-80 91 % of control

CCC[CH2][Sn-]([CH2]CCC)([CH2]CCC)[O]C(=O)C(C)C
inactive: endpoint: mean survival time, dose: 375.0 micrograms/kg/injection, schedule: Q01DX009 (ip), vehicle: saline 93 % of control | endpoint: mean survival time, dose: 750.0 micrograms/kg/injection, schedule: Q01DX009 (ip), vehicle: saline 100 % of control | endpoint: mean survival time, dose: 1500.0 micrograms/kg/injection, schedule: Q01DX009 (ip), vehicle: saline 96 % of control

COc1ccccc1NC(N)=O
inactive: [2] 95 % of control | [4] 86 % of control | [6] 95 % of control

C[N+](C)(C)CCOC(=O)c1cc(CBr)cc(CBr)c1
inactive: [10] 103 % of control

CN(C)C(=S)SCC(=O)O
inactive: [10] 95 % of control | [11] 96 % of control | [12] 102 % of control

Nc1nc2c(ncn2C2OC(CO)C(O)C2O)c(=O)[n]1[Hg][c]1ccccc1 (stereo unspecified)
inactive: endpoint: median survival time, dose: 0.79 mg/kg/injection, schedule: Q01DX005 (ip), vehicle: saline 103 % of control | endpoint: median survival time, dose: 1.56 mg/kg/injection, schedule: Q01DX005 (ip), vehicle: saline 100 % of control | endpoint: median survival time, dose: 3.12 mg/kg/injection, schedule: Q01DX005 (ip), vehicle: saline 100 % of control | endpoint: median survival time, dose: 6.25 mg/kg/injection, schedule: Q01DX005 (ip), vehicle: saline 100 % of control | endpoint: median survival time, dose: 12.5 mg/kg/injection, schedule: Q01DX005 (ip), vehicle: saline 108 % of control

COc1cc(Cl)ccc1NC(=O)N1CCN(c2ccccc2)CC1
inactive: [13] 96 % of control | [14] 96 % of control | [1] 92 % of control and 93 % of control | [4] 86 % of control

CCOC(=O)C(CO)NC(=O)C[NH-].CCOC(=O)C(CO)NC(=O)C[NH-].[Cl][Pt+2][Cl] (stereo unspecified)
inactive: [10] 111 % of control | [11] 111 % of control | [12] 114 % of control

S=C(NCc1ccccc1)NCc1ccccc1
inactive: [3] 108 % of control | [5] 100 % of control | [9] 102 % of control

CCCCCc1cccc(CC(=O)OCC)n1
inactive: [10] 89 % of control | [11] 94 % of control | [12] 94 % of control

NP(=O)(OCCC(=O)OCc1ccccc1)N(CCCl)CCCl (stereo unspecified)
inactive: endpoint: mean survival time, dose: 25.0 mg/kg/injection, schedule: Q01DX009 (ip), vehicle: Klucel (hydroxypropylcellulose) (HPC) 97 % of control | endpoint: mean survival time, dose: 50.0 mg/kg/injection, schedule: Q01DX009 (ip), vehicle: Klucel (hydroxypropylcellulose) (HPC) 92 % of control | endpoint: mean survival time, dose: 100.0 mg/kg/injection, schedule: Q01DX009 (ip), vehicle: Klucel (hydroxypropylcellulose) (HPC) 91 % of control | endpoint: mean survival time, dose: 125.0 mg/kg/injection, schedule: Q01DX001 (ip), vehicle: Klucel (hydroxypropylcellulose) (HPC) 95 % of control | endpoint: mean survival time, dose: 200.0 mg/kg/injection, schedule: Q01DX009 (ip), vehicle: Klucel (hydroxypropylcellulose) (HPC) 94 % of control | endpoint: mean survival time, dose: 250.0 mg/kg/injection, schedule: Q01DX001 (ip), vehicle: Klucel (hydroxypropylcellulose) (HPC) 93 % of control | endpoint: mean survival time, dose: 400.0 mg/kg/injection, schedule: Q01DX009 (ip), vehicle: Klucel (hydroxypropylcellulose) (HPC) 97 % of control | endpoint: mean survival time, dose: 500.0 mg/kg/injection, schedule: Q01DX001 (ip), vehicle: Klucel (hydroxypropylcellulose) (HPC) 98 % of control | endpoint: mean survival time, dose: 1000.0 mg/kg/injection, schedule: Q01DX001 (ip), vehicle: Klucel (hydroxypropylcellulose) (HPC) 95 % of control

CCOC(=S)S
inactive: endpoint: mean survival time, dose: 100.0 mg/kg/injection, schedule: Q01DX009 (ip), vehicle: saline sonified 103 % of control | [10] 96 % of control | endpoint: mean survival time, dose: 200.0 mg/kg/injection, schedule: Q01DX009 (ip), vehicle: saline sonified 97 % of control | [12] 104 % of control

CCOC(=O)c1ccc(NC(=O)Nc2ccc(Cl)cc2Cl)cc1
inactive: endpoint: mean survival time, dose: 12.5 mg/kg/injection, schedule: Q01DX001 (ip), vehicle: saline with Tween-80 95 % of control | [13] 91 % of control and 92 % of control | endpoint: mean survival time, dose: 25.0 mg/kg/injection, schedule: Q01DX001 (ip), vehicle: saline with Tween-80 93 % of control and 96 % of control | [14] 88 % of control and 97 % of control | endpoint: mean survival time, dose: 25.0 mg/kg/injection, schedule: Q04DX002 (ip), vehicle: saline with Tween-80 95 % of control and 96 % of control | [7] 86 % of control | endpoint: mean survival time, dose: 50.0 mg/kg/injection, schedule: Q01DX001 (ip), vehicle: saline with Tween-80 91 % of control | [1] 88 % of control | endpoint: mean survival time, dose: 50.0 mg/kg/injection, schedule: Q04DX002 (ip), vehicle: saline with Tween-80 88 % of control and 96 % of control | [8] 91 % of control | endpoint: mean survival time, dose: 200.0 mg/kg/injection, schedule: Q01DX001 (ip), vehicle: saline with Tween-80 92 % of control | endpoint: mean survival time, dose: 200.0 mg/kg/injection, schedule: Q04DX002 (ip), vehicle: saline with Tween-80 88 % of control | [5] 89 % of control | endpoint: mean survival time, dose: 400.0 mg/kg/injection, schedule: Q04DX002 (ip), vehicle: saline with Tween-80 86 % of control

COc1ccccc1-n1c(C)nc2c(cnn2C2OC(CO)C(O)C2O)c1=O (stereo unspecified)
inactive: endpoint: mean survival time, dose: 12.5 mg/kg/injection, schedule: Q01DX005 (ip), vehicle: saline 107 % of control | endpoint: mean survival time, dose: 25.0 mg/kg/injection, schedule: Q01DX005 (ip), vehicle: saline 101 % of control | endpoint: mean survival time, dose: 50.0 mg/kg/injection, schedule: Q01DX005 (ip), vehicle: saline 101 % of control | endpoint: mean survival time, dose: 100.0 mg/kg/injection, schedule: Q01DX005 (ip), vehicle: saline 98 % of control | endpoint: mean survival time, dose: 200.0 mg/kg/injection, schedule: Q01DX005 (ip), vehicle: saline 101 % of control
